Results: patent US20240059710A1, “KRAS G12D Inhibitors” (Jacobio Pharmaceuticals Co., Ltd., priority 2020, published 2024)
Read-outs that look alike come from different tables or passages of the source.

Key:
[1] = target: T1, GDP-loaded HIS-KRAS (G12D, aa 1-169) (Homo sapiens, UniProt P01116, G12D); experiment: SOS1 catalyzed nucleotide exchange assay; format: biochemical; conditions: SOS1 ExD, TR-FRET, 4 hours at 25° C.
T1 construct: GDP-loaded HIS-KRAS (G12D, aa 1-169)
Method in brief: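 Compound was preincubated 15 min with 1.5 nM GDP-loaded KRAS G12D (final 5 nM GDP). SOS1 ExD (aa 564-1049, 0.5 µM), 80 nM BODIPY FL GTP and anti-His Tb antibody were then added for 4 h at 25 °C. The TR-FRET 515/486 ratio was normalized between DMSO and no-KRAS wells, and IC50 came from 4-parameter fits.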

[2] = target: T2, GppNp-loaded HIS-KRAS (G12D, aa 1-169) / cRAF RBD (Homo sapiens, UniProt P01116, G12D); experiment: GTP-KRAS and cRAF interaction assay; format: binding; conditions: HTRF, 2 hours at 25° C.
T2 construct: GppNp-loaded HIS-KRAS (G12D, aa 1-169)
T2 sequence (P01116 1-169 isoform P01116-2 G12D): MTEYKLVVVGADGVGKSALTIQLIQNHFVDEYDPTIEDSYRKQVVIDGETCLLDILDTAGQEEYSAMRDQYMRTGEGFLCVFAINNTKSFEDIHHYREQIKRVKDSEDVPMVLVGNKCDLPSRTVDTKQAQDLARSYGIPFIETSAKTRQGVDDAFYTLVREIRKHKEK
Method in brief: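 GppNp-loaded KRAS G12D (2.0 nM) preincubated 15 min with compound, then cRAF RBD (35 nM) and HTRF antibodies added for 2 h at 25° C with 100 μM GTP final. Ratios normalized to DMSO and no-KRAS controls; IC50 by 4-parameter fit.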

[3] = test system: AGS cells expressing KRAS G12D; experiment: Phospho-ERK1/2(THR202/TYR204) HTRF assay; format: cell-based; conditions: 2 hours incubation, read-out: AGS p-ERK IC50
Method in brief: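 Cells seeded 40,000/well, incubated overnight, then treated with compound in F12K with 0.1% FBS for 2 h at 37 °C. Lysates assayed for phospho-ERK1/2 by HTRF after 4 h at 25 °C; IC50 from 4-parameter logistic fit.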

AGS = experiment: Cell growth inhibition assay (AGS); format: cell-based; conditions: 6 days incubation, CellTiter-Glo
Method in brief: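 AGS cells in F12K/10% FBS plated at 500 cells/well, attached overnight, then exposed to compounds for 6 days at 37° C./5% CO2. Viability by CellTiter-Glo luminescence; IC50 from 4-parameter logistic fit.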

AsPC-1 = experiment: Cell growth inhibition assay (AsPC-1); format: cell-based; conditions: AsPC-1, 6 days incubation, CellTiter-Glo
Method in brief: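 AsPC-1 cells seeded at 1000 cells/well in RPMI-1640 with 10% FBS, attached overnight, then exposed to compound dilutions for 6 days at 37 °C/5% CO2. Viability read by CellTiter-Glo luminescence; IC50 from a 4-parameter logistic fit.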

T1 sequence (P01116 1-169 isoform P01116-2 G12D): as above

Row | SMILES | IC50 [1] [nM] | IC50 [2] [nM] | IC50 ([3]; Homo sapiens) [nM] | IC50 (AGS; Homo sapiens, 144 h) [nM] | IC50 (AsPC-1; Homo sapiens, ASPC1, 144 h) [nM] | IC50 [3] [nM] | IC50 (AGS) [nM] | IC50 (AsPC-1) [nM]
1 | C#Cc1cccc2cc(O)cc(-c3c(F)cc4c(N5CC6CCC(C5)N6)nc(OCC5(CN6CC[S+]([O-])CC6)CC5)nc4c3F)c12 [Compound 89] | 20.5 | 1940 | > 1000 | 14.9 | 96.6 | – | – | –
2 | N#Cc1c(N)sc2c(F)ccc(-c3ccc4c(N5CC6CCC(C5)N6)nc(OCC5(CN6CCOCC6)CC5)nc4c3F)c12 [Compound 95] | 3.28 | 388 | > 200 | 52.7 | 572 | – | – | –
3 | C#Cc1cccc2cc(O)cc(-c3c(C(F)(F)F)cc4c(N5CC6CCC(C5)N6)nc(OCC5(CN6CCOCC6)CC5)nc4c3F)c12 (single isomer, unassigned) [Compound 98B] | 0.826 | 11.2 | – | – | – | 11.6 | 6.03 | 36.7
4 | C#Cc1cccc2cc(O)cc(-c3c(C)cc4c(N5CC6CCC(C5)N6)nc(OCC5(CN6CCOCC6)CC5)nc4c3F)c12 (single isomer, unassigned) [Compound 40B] | 0.824 | 22.4 | – | – | – | 1.97 | 4.92 | 45.8
5 | C#Cc1c(F)ccc2cc(O)cc(-c3ccc4c(N5CC6CCC(C5)N6)nc(OCC5(CN6CCOCC6)CC5)nc4c3F)c12 [Compound 48] | 7.14 | 17.7 | 0.794 | 1.14 | 19.9 | – | – | –
6 | C#Cc1cccc2cc(O)cc(-c3c(C(F)(F)F)cc4c(N5CC6CCC(C5)N6)nc(OCC5(CN6CCOCC6)CC5)nc4c3F)c12 (single isomer, unassigned) [Compound 98A] | 219 | 4260 | – | – | – | 1830 | 319 | 1440
7 | C#Cc1cccc2cc(O)cc(-c3ccc4c(N5CC6CCC(C5)N6)nc(OCC5(CN6CCOCC6)CC5)nc4c3F)c12 [Compound 34] | 8.73 | 12.6 | 2.16 | 11.1 | 19.1 | – | – | –
8 | C#Cc1cccc2cc(O)cc(-c3ccc4c(N5CC6CCC(C5)N6)nc(OCC5(CN6CCC[C@H](F)C6)CC5)nc4c3F)c12 [Compound 113] | 12.6 | 124 | – | – | – | 15.9 | 4.35 | 18.4
9 | C#Cc1cccc2cc(O)cc(-c3ccc4c(N5CC6CC(C5)N6)nc(OCC5(CN6CCOCC6)CC5)nc4c3F)c12 [Compound 55] | 11.6 | 147 | 27.5 | 76.9 | 649 | – | – | –
10 | Oc1cc(-c2c(Cl)cc3c(N4CC5CCC(C4)N5)nc(OCC45CCCN4C[C@H](F)C5)nc3c2F)c2c(Cl)cccc2c1 (stereo partly shown) [Compound 90] | 5.35 | 84.8 | 12.4 | 14.6 | 100 | – | – | –
11 | C#Cc1cccc2cc(O)cc(-c3c(F)cc4c(N5CC6CCC(C5)N6)nc(OCC5(CN6CCOCC6)CC5)nc4c3C)c12 [Compound 101] | 1.59 | 277 | 125 | 39.6 | 113 | – | – | –
12 | C#Cc1cccc2cc(O)cc(-c3c(C(F)(F)F)cc4c(N5CC6CCC(C5)N6)nc(OCC5(CN6CCOCC6)CC5)nc4c3F)c12 [Compound 98] | 1.29 | 20.1 | 13.7 | 18 | 69.7 | – | – | –
13 | C#Cc1cccc2cc(O)cc(-c3ccc4c(N5CC6CCC(C5)N6)nc(OCC5(CN6CCOCC6)CC5)nc4c3Cl)c12 [Compound 121] | 28.8 | 318 | 19.7 | 11.2 | 67 | – | – | –
14 | C#Cc1cccc2cc(O)cc(-c3c(C)cc4c(N5CC6CCC(C5)N6)nc(OCC5(CN6CCOCC6)CC5)nc4c3F)c12 [Compound 40] | 27.7 | 74.3 | 3.72 | 15.4 | 55.5 | – | – | –
15 | C#Cc1cccc2cc(O)cc(-c3c(CO)cc4c(N5CC6CCC(C5)N6)nc(OCC5(CN6CCOCC6)CC5)nc4c3F)c12 [Compound 102] | 6.42 | 74.2 | 40.4 | 82.5 | 1940 | – | – | –
16 | C#Cc1cccc2cc(O)cc(-c3cc4nc(OCC5(CN6CCOCC6)CC5)nc(N5CC6CCC(C5)N6)c4cc3C(F)(F)F)c12 [Compound 119] | 42.9 | 200 | 113 | 81.6 | 362 | – | – | –
17 | C#Cc1cccc2cc(O)cc(-c3ccc4c(N5CC6CCC(C5)N6)nc(OCC5(CN6CCO[C@@H](C)C6)CC5)nc4c3F)c12 [Compound 80] | 3.76 | 69.4 | 3.63 | 5.26 | 24.1 | – | – | –
18 | C#Cc1cccc2cc(O)cc(-c3ccc4c(N5CC6CCC(C5)N6)nc(OCC5(CN6CC[C@@H](F)C6)CC5)nc4c3F)c12 [Compound 114] | 12.3 | 120 | 9.02 | 4.47 | 18.7 | – | – | –
19 | C#Cc1cccc2cc(O)cc(-c3c(Cl)cc4c(N5CC6CCC(C5)N6)nc(OCC5(CN6CCOCC6)CC5)nc4c3F)c12 [Compound 35] | 10.4 | 113 | 32.2 | 8.58 | 99.3 | – | – | –
20 | C#Cc1cccc2cc(O)cc(-c3c(Cl)cc4c(N5CC6CCC(C5)N6)nc(OCC5(CN6CCOCC6)CC5)nc4c3Cl)c12 [Compound 107] | 4.11 | 524 | 140 | 107 | 282 | – | – | –
